IC50 data for 25 compounds are collected here from patent US10894784B2, “Heteroarylbenzimidazole compounds” (BAYER PHARMA AKTIENGESELLSCHAFT, priority 2015, dated 2021).

“And” between values parts separate entries of the source, which are not always exact repeats. Identical values can stand only once.

For one test, the target named is TBK1 (Homo sapiens (Human), UniProt Q9UHD2). Briefly: TBK1 low ATP kinase assay (in vitro assay 1). The note with it: TBK1 low ATP kinase assay IC50, in vitro assay 1. It is filed as biochemical.
Chain of TBK1 (Q9UHD2 whole entry): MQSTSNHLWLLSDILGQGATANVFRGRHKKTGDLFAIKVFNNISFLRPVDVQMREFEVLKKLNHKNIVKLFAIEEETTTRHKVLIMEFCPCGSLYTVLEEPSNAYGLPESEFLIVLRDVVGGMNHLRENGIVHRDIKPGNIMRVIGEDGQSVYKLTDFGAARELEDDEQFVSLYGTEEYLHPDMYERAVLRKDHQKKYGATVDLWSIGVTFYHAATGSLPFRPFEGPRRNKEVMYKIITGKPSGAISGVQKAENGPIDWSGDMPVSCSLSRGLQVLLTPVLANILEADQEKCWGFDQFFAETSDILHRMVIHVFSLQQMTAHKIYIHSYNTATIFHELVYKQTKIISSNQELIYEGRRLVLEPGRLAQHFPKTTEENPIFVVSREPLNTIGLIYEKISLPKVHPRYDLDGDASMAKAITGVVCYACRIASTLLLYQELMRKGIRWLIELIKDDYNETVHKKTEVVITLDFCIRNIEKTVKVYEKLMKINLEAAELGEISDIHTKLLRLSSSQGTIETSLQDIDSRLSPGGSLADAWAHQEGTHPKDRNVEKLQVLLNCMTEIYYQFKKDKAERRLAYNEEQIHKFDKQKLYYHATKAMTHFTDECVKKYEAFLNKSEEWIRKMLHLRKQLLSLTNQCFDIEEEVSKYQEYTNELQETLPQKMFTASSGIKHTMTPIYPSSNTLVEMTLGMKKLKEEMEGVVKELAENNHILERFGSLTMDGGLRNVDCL
The compound `CC(c1ccnc(Nc2nc3ccc(-c4cc(N(C)C)ncn4)cc3[nH]2)c1)N1CCN(C(=O)CC(F)(F)F)CC1` (single isomer, unassigned) [Example 100.01, 1-(4-{(1R or 1S)-1-[2-({6-[6-(dimethylamino)pyrimidin-4-yl]-1H-benzimidazol-2-yl}amino)pyridin-4-yl]ethyl}piperazin-1-yl)-3,3,3-trifluoropropan-1-one] gave an IC50 of 1.5 nM.

The test is the same for the next values; noted with them: in vitro assay 1, read-out: TBK1 low ATP kinase assay IC50.
Regarding `O=C(C1CC1)N1CCN(Cc2ccnc(Nc3nc4ccc(-c5cnn(CC6CC6)c5)cc4[nH]3)c2)CC1` [Example 39.01.03, cyclopropyl(4-{[2-({6-[1-(cyclopropylmethyl)-1H-pyrazol-4-yl]-1H-benzimidazol-2-yl}amino)pyridin-4-yl]methyl}piperazin-1-yl)methanone], the IC50 was determined as 5.35 nM.
For the compound `O=C(CC(F)(F)F)N1CCN(Cc2ccnc(Nc3nc4ccc(-c5cncnc5)cc4[nH]3)c2)CC1` [Example 45.01.01, 3,3,3-trifluoro-1-{4-[(2-{[6-(pyrimidin-5-yl)-1H-benzimidazol-2-yl]amino}pyridin-4-yl)methyl]piperazin-1-yl}propan-1-one], the IC50 was found to be 323 nM.
Same read-out and setting: the value for `CC(c1ccnc(Nc2nc3ccc(-c4ccncn4)cc3[nH]2)c1)N1CCN(C(=O)CC(F)(F)F)CC1` (single isomer, unassigned) [Example 23.05.02.A, 3,3,3-trifluoro-1-{4-[(1R or 1S)-1-(2-{[6-(pyrimidin-4-yl)-1H-benzimidazol-2-yl]amino}pyridin-4-yl)ethyl]piperazin-1-yl}propan-1-one] was 8.23 nM; that for `CC(c1ccnc(Nc2nc3ccc(-c4cc(N5CCOCC5)ncn4)cc3[nH]2)c1)N1CCN(C(=O)OC(C)(C)C)CC1` (single isomer, unassigned) [Example 118.01, tert-butyl 4-{(1R or 1S)-1-[2-({6-[6-(morpholin-4-yl)pyrimidin-4-yl]-1H-benzimidazol-2-yl}amino)pyridin-4-yl]ethyl}piperazine-1-carboxylate] was 7.9 nM.
Still for that read-out and setting: the result for `COc1ncccc1-c1ccc2nc(Nc3cc(CN4CCN(C(=O)CC5CC5)CC4)ccn3)[nH]c2c1` [Example 15.02, 2-cyclopropyl-1-{4-[(2-{[6-(2-methoxypyridin-3-yl)-1H-benzimidazol-2-yl]amino}pyridin-4-yl)methyl]piperazin-1-yl}ethanone] reads 401 nM; that for `CC(c1ccnc(Nc2nc3ccc(-c4cc(C(F)(F)F)ncn4)c(F)c3[nH]2)c1)N1CCN(C(=O)C2(C(F)(F)F)CC2)CC1` (single isomer, unassigned) [Example 173.04, (4-{(1R or 1S)-1-[2-({7-fluoro-6-[6-(trifluoromethyl)pyrimidin-4-yl]-1H-benzimidazol-2-yl}amino)pyridin-4-yl]ethyl}piperazin-1-yl)[1-(trifluoromethyl)cyclopropyl]methanone], 149 nM; that for `CNc1cc(-c2ccc3nc(Nc4cc(CN5CCN(C(=O)OC(C)(C)C)CC5)ccn4)[nH]c3c2)ncn1` [Example 150.01, tert-butyl 4-{[2-({6-[6-(methylamino)pyrimidin-4-yl]-1H-benzimidazol-2-yl}amino)pyridin-4-yl]methyl}piperazine-1-carboxylate], 15 nM.
Still for that read-out and setting: the result for `Cc1cc(-c2ccc3nc(Nc4cc(C(C)N5CCN(C(=O)C6CC6)CC5)ccn4)[nH]c3c2F)ncn1` (single isomer, unassigned) [Example 172.03, cyclopropyl{4-[(1R or 1S)-1-(2-{[7-fluoro-6-(6-methylpyrimidin-4-yl)-1H-benzimidazol-2-yl]amino}pyridin-4-yl)ethyl]piperazin-1-yl}methanone] reads 15 nM; that for `CC(c1ccnc(Nc2nc3ccc(-c4cnn(CC5CC5(F)F)c4)cc3[nH]2)c1)N1CCN(C(=O)CC(F)(F)F)CC1` (single isomer, unassigned) [Example 55.02.01, 1-{4-[(1R or 1S)-1-(2-{[6-(1-{[(1R or IS)-2,2-difluorocyclopropyl]methyl}-1H-pyrazol-4-yl)-1H-benzimidazol-2-yl]amino}pyridin-4-yl)ethyl]piperazin-1-yl}-3,3,3-trifluoropropan-1-one], 0.72 nM.
`COc1cncnc1-c1ccc2nc(Nc3cc(C(C)N4CCN(C(=O)C5CC5)CC4)ccn3)[nH]c2c1` (single isomer, unassigned) [Example 35.03.03.B, cyclopropyl{4-[(1S or 1R)-1-(2-{[6-(5-methoxypyrimidin-4-yl)-1H-benzimidazol-2-yl]amino}pyridin-4-yl)ethyl]piperazin-1-yl}methanone]: the IC50 stood at 31.7 nM.
Turning to `COc1cncnc1-c1ccc2nc(Nc3cc(CN4CCN(C(=O)N(C)C)CC4)ccn3)[nH]c2c1` [Example 35.01.03, 4-[(2-{[6-(5-methoxypyrimidin-4-yl)-1H-benzimidazol-2-yl]amino}pyridin-4-yl)methyl]-N,N-dimethylpiperazine-1-carboxamide], the IC50 is 59.1 nM.
On the same count and under the same terms, the value for `COc1cc(-c2ccc3nc(Nc4cc(C(C)N5CCN(C(=O)CC(F)(F)F)CC5)ccn4)[nH]c3c2)ncn1` (single isomer, unassigned) [Example 34.03.01.A, 3,3,3-trifluoro-1-{4-[(1R or 1S)-1-(2-{[6-(6-methoxypyrimidin-4-yl)-1H-benzimidazol-2-yl]amino}pyridin-4-yl)ethyl]piperazin-1-yl}propan-1-one] was 12.1 nM; that for `O=C(CC(F)(F)F)N1CCN(Cc2ccnc(Nc3nc4ccc(-c5cc(N6CCCC6)ncn5)cc4[nH]3)c2)CC1` [Example 93.01, 3,3,3-trifluoro-1-(4-{[2-({6-[6-(pyrrolidin-1-yl)pyrimidin-4-yl]-1H-benzimidazol-2-yl}amino)pyridin-4-yl]methyl}piperazin-1-yl)propan-1-one] was 2.3 nM.
Still for that read-out and setting: the result for `COc1cncnc1-c1ccc2nc(Nc3cc(C(C)N4CCN(C(=O)CC(F)(F)F)CC4)ccn3)[nH]c2c1` (single isomer, unassigned) [Example 35.03.01.B, 3,3,3-trifluoro-1-{4-[(1S or 1R)-1-(2-{[6-(5-methoxypyrimidin-4-yl)-1H-benzimidazol-2-yl]amino}pyridin-4-yl)ethyl]piperazin-1-yl}propan-1-one] reads 30 nM; that for `CC(c1ccnc(Nc2nc3ccc(-c4cc(N5CCCC5)ncn4)cc3[nH]2)c1)N1CCN(C(=O)C2(C)CC2(F)F)CC1` (single isomer, unassigned) [Example 117.06, [(1RS)-2,2-difluoro-1-methylcyclopropyl](4-{(1R or S)-1-[2-({6-[6-(pyrrolidin-1-yl)pyrimidin-4-yl]-1H-benzimidazol-2-yl}amino)pyridin-4-yl]ethyl}piperazin-1-yl)methanone], 0.86 nM.
On to `Cc1cc(-c2ccc3nc(Nc4cc(C(C)N5CCN(C(=O)C6CC6)CC5)ccn4)[nH]c3c2)ncn1` (single isomer, unassigned) [Example 30.03.03.A, cyclopropyl{4-[(1R or 1S)-1-(2-{[6-(6-methylpyrimidin-4-yl)-1H-benzimidazol-2-yl]amino}pyridin-4-yl)ethyl]piperazin-1-yl}methanone], for which the half-maximal inhibitory concentration (IC50) amounted to 3.06 nM.
With `CSc1cc(-c2ccc3nc(Nc4cc(CN5CCN(C(=O)CC(F)(F)F)CC5)ccn4)[nH]c3c2)ncn1` [Example 95.01, 3,3,3-trifluoro-1-(4-{[2-({6-[6-(methylsulfanyl)pyrimidin-4-yl]-1H-benzimidazol-2-yl}amino)pyridin-4-yl]methyl}piperazin-1-yl)propan-1-one], the IC50 came out at 6.6 nM.
Still for that read-out and setting: the result for `Cc1cccc(-c2ccc3nc(Nc4cc(CN5CCN(C(=O)OC(C)(C)C)CC5)ccn4)[nH]c3c2)n1` [Example 12.01, tert-butyl 4-[(2-{[6-(6-methylpyridin-2-yl)-1H-benzimidazol-2-yl]amino}pyridin-4-yl)methyl]piperazine-1-carboxylate] reads > 20000 nM and 10000 nM and 8120 nM; that for `O=C(CC(F)(F)F)N1CCN(Cc2ccnc(Nc3nc4ccc(-c5ncnc(NC6CCC6)c5F)cc4[nH]3)c2)CC1` [Example 194.02, 1-(4-{[2-({6-[6-(cyclobutylamino)-5-fluoropyrimidin-4-yl]-1H-benzimidazol-2-yl}amino)pyridin-4-yl]methyl}piperazin-1-yl)-3,3,3-trifluoropropan-1-one], 45.9 nM.
On to `Cn1ncnc1-c1ccc2nc(Nc3cc(CN4CCN(C(=O)CC(F)(F)F)CC4)ccn3)[nH]c2c1` [Example 41.02, 3,3,3-trifluoro-1-{4-[(2-{[6-(1-methyl-1H-1,2,4-triazol-5-yl)-1H-benzimidazol-2-yl]amino}pyridin-4-yl)methyl]piperazin-1-yl}propan-1-one], for which the half-maximal inhibitory concentration (IC50) amounted to 681 nM.
Still for that read-out and setting: the value for `Cc1noc(-c2ccc3nc(Nc4cc(CN5CCN(c6ccccn6)CC5)ccn4)[nH]c3c2)n1` [Example 101.15, 6-(3-methyl-1,2,4-oxadiazol-5-yl)-N-(4-{[4-(pyridin-2-yl)piperazin-1-yl]methyl}pyridin-2-yl)-1H-benzimidazol-2-amine] was 210 nM; that for `Cc1noc(-c2ccc3nc(Nc4cc(CN5CCN(c6c(Cl)cncc6Cl)CC5)ccn4)[nH]c3c2)n1` [Example 101.23, N-(4-{[4-(3,5-dichloropyridin-4-yl)piperazin-1-yl]methyl}pyridin-2-yl)-6-(3-methyl-1,2,4-oxadiazol-5-yl)-1H-benzimidazol-2-amine] was 280 nM.
Same read-out and setting: the value for `Cc1noc(-c2ccc3nc(Nc4cc(CN5CCN(C(=O)N6CCCC6)CC5)ccn4)[nH]c3c2)n1` [Example 101.31, {4-[(2-{[6-(3-methyl-1,2,4-oxadiazol-5-yl)-1H-benzimidazol-2-yl]amino}pyridin-4-yl)methyl]piperazin-1-yl}(pyrrolidin-1-yl)methanone] was 510 nM; that for `CC(c1ccnc(Nc2nc3ccc(-c4cnn(CC5(Cl)CC5)c4)cc3[nH]2)c1)N1CCN(C(=O)OC(C)(C)C)CC1` (single isomer, unassigned) [Example 69.01, tert-butyl 4-[(1R or 1S)-1-{2-[(6-{1-[(1-chlorocyclopropyl)methyl]-1H-pyrazol-4-yl}-1H-benzimidazol-2-yl)amino]pyridin-4-yl}ethyl]piperazine-1-carboxylate] was 12 nM.

One may read the IC50 as the concentration at which inhibition is half-maximal.
